Experimental data reported in the supplement of paper PMC10307832.

Compound: C[C@@]1(C(=O)Nc2ccc(F)nc2)CCCN1c1nc(Nc2cc(C3CC3)n[nH]2)c2cccn2n1 + C[C@]1(O)C[C@@H](c2nc(-c3ccc4ccc(-c5ccccc5)nc4c3)c3c(N)nccn32)C1 [Linsitinib] (partner 1 µM)
Assay: relative viability (nuclei count vs DMSO), 5 days (fraction); higher = more cells survive
Settings: first compound 1.265 µM
Outline: (§1)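 Lung cancer cell lines were seeded in 1536-well plates and dosed by pin tool the next day, with either a single drug or a fixed anchor-drug dose combined with five library-drug doses (not always all listed) spaced in √10 steps. Five days later, one step fixed the cells and stained their nuclei (final 0.05% Triton X-100, 1% formaldehyde, 1 ug/ml Hoechst), and nuclei were counted on 4× images. Relative viability is the nuclei count in treated wells divided by the count in vehicle wells, and each value is the median of duplicate plates.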

Row | Cell Line | relative viability
1 | NCI-H1666 | 0.831
2 | NCI-H596 | 1.18
3 | LK-2 | 0.573
4 | NCI-H2087 | 0.932
5 | SK-MES-1 | 1.05
6 | H3255 | 0.986
7 | COR-L23 | 0.705
8 | COR-L 105 | 0.946
9 | IA-LM | 0.452
10 | LOU-NH91 | 0.977
11 | NCI-H2405 | 0.766
12 | HOP-62 | 1.06
13 | HCC-44 | 0.945
14 | A549 | 0.79
15 | LU99A | 0.467
16 | BEN | 1.04
17 | HARA | 1.12
18 | HCC-78 | 0.259
19 | NCI-H322M | 0.96
20 | LCLC-97TM1 | 0.207
21 | NCI-H2009 | 1.19
22 | NCI-H1299 | 0.988
23 | NCI-H1563 | 1.16
24 | ABC-1 | 0.777

Compound: C[C@@]1(C(=O)Nc2ccc(F)nc2)CCCN1c1nc(Nc2cc(C3CC3)n[nH]2)c2cccn2n1 + CCNC(=O)c1noc(-c2cc(C(C)C)c(O)cc2O)c1-c1ccc(CN2CCOCC2)cc1 [Luminespib] (partner 0.01 µM)
Assay: as above
Settings: first compound 0.04 µM
Outline: as §1

Row | Cell Line | relative viability
25 | NCI-H2342 | 0.63
26 | NCI-H1623 | 0.47
27 | NCI-H727 | 0.34
28 | NCI-H1650 | 0.215
29 | NCI-H1993 | 0.535
30 | SW 1573 | 0.224
31 | NCI-H838 | 0.296
32 | LCLC-103H | 0.92
33 | NCI-H520 | 0.214
34 | NCI-H2126 | 0.733
35 | EMC-BAC-2 | 0.863
36 | NCI-H2085 | 0.431
37 | NCI-H1666 | 0.915
38 | NCI-H596 | 0.819
39 | LK-2 | 0.159
40 | NCI-H2087 | 0.122
41 | SK-MES-1 | 0.666
42 | H3255 | 1.02

Row | Cell Line | relative viability
43 | COR-L23 | 0.714
44 | COR-L 105 | 0.672
45 | LOU-NH91 | 0.335
46 | ChaGo-K-1 | 0.519
47 | NCI-H2170 | 0.521
48 | NCI-H2405 | 0.549
49 | HOP-62 | 0.999
50 | HCC-44 | 0.829
51 | NCI-H522 | 1.04
52 | LU99A | 0.244
53 | BEN | 0.381
54 | HARA | 0.72
55 | SW 900 | 0.18
56 | NCI-H322M | 0.583
57 | LCLC-97TM1 | 0.342
58 | NCI-H2009 | 1.11
59 | NCI-H1563 | 0.545
60 | ABC-1 | 0.63

Same assay, conditions: first compound 0.1265 µM

Row | Cell Line | relative viability
61 | NCI-H2342 | 0.606
62 | NCI-H1623 | 0.368
63 | NCI-H727 | 0.319
64 | NCI-H1650 | 0.194
65 | NCI-H1993 | 0.476
66 | SW 1573 | 0.185
67 | NCI-H838 | 0.291
68 | LCLC-103H | 0.766
69 | NCI-H520 | 0.242
70 | NCI-H2126 | 0.429
71 | EMC-BAC-2 | 0.941
72 | NCI-H2085 | 0.405
73 | NCI-H1666 | 0.932
74 | NCI-H596 | 0.885
75 | LK-2 | 0.204
76 | NCI-H2087 | 0.175
77 | SK-MES-1 | 0.664
78 | H3255 | 0.982

Row | Cell Line | relative viability
79 | COR-L23 | 0.65
80 | COR-L 105 | 0.62
81 | LOU-NH91 | 0.353
82 | ChaGo-K-1 | 0.503
83 | NCI-H2170 | 0.505
84 | NCI-H2405 | 0.489
85 | HOP-62 | 0.789
86 | HCC-44 | 0.744
87 | NCI-H522 | 1.02
88 | LU99A | 0.246
89 | BEN | 0.487
90 | HARA | 0.73
91 | SW 900 | 0.198
92 | NCI-H322M | 0.405
93 | LCLC-97TM1 | 0.272
94 | NCI-H2009 | 1.08
95 | NCI-H1563 | 0.506
96 | ABC-1 | 0.519

Same assay, conditions: first compound 0.4 µM

Row | Cell Line | relative viability
97 | NCI-H2342 | 0.505
98 | NCI-H1623 | 0.345
99 | NCI-H727 | 0.249
100 | NCI-H1650 | 0.199
101 | NCI-H1993 | 0.275
102 | SW 1573 | 0.182
103 | NCI-H838 | 0.183
104 | LCLC-103H | 0.733
105 | NCI-H520 | 0.267
106 | NCI-H2126 | 0.542
107 | EMC-BAC-2 | 0.713
108 | NCI-H2085 | 0.365
109 | NCI-H1666 | 0.825
110 | NCI-H596 | 0.88
111 | LK-2 | 0.174
112 | NCI-H2087 | 0.123
113 | SK-MES-1 | 0.763
114 | H3255 | 0.89

Row | Cell Line | relative viability
115 | COR-L23 | 0.449
116 | COR-L 105 | 0.624
117 | LOU-NH91 | 0.305
118 | ChaGo-K-1 | 0.455
119 | NCI-H2170 | 0.45
120 | NCI-H2405 | 0.374
121 | HOP-62 | 0.906
122 | HCC-44 | 0.623
123 | NCI-H522 | 1.04
124 | LU99A | 0.197
125 | BEN | 0.641
126 | HARA | 0.585
127 | SW 900 | 0.188
128 | NCI-H322M | 0.406
129 | LCLC-97TM1 | 0.23
130 | NCI-H2009 | 1.01
131 | NCI-H1563 | 0.547
132 | ABC-1 | 0.244

Same assay, conditions: first compound 1.265 µM

Row | Cell Line | relative viability
133 | NCI-H2342 | 0.499
134 | NCI-H1623 | 0.403
135 | NCI-H727 | 0.249
136 | NCI-H1650 | 0.181
137 | NCI-H1993 | 0.555
138 | SW 1573 | 0.143
139 | NCI-H838 | 0.338
140 | LCLC-103H | 0.927
141 | NCI-H520 | 0.211
142 | NCI-H2126 | 0.52
143 | EMC-BAC-2 | 0.857
144 | NCI-H2085 | 0.54
145 | NCI-H1666 | 0.812
146 | NCI-H596 | 1.17
147 | LK-2 | 0.169
148 | NCI-H2087 | 0.145
149 | SK-MES-1 | 0.609
150 | H3255 | 0.811
151 | COR-L23 | 0.45
152 | COR-L 105 | 0.685
153 | LOU-NH91 | 0.335
154 | ChaGo-K-1 | 0.613
155 | NCI-H2170 | 0.521
156 | NCI-H2405 | 0.432
